US20250027130A1, “Nucleic Acid Synthesis and Sequencing Using Tethered Nucleoside Triphosphates” (The Regents of the University of California, priority 2022, published 2025)

Test system: MaPylRS
Experiment: Intact tRNA mass spectrometry: acylation of Ma-tRNA^Pyl by MaPylRS
Type: biochemical, Methanomethylophilus alvus
Conditions: MaPylRS 2.5 μM, Ma-tRNA^Pyl 25 μM, 37° C., 2 h; average of 3 technical replicates

## CC(C)(C)OC(=O)NCCCCC(C(=O)O)C(=O)O [Substrate 16]
  Yield of diacylated Ma-tRNA^Pyl: 0.0%
  Yield of monoacylated Ma-tRNA^Pyl: 0.25%
